The text below walks through data of patent publication US8338333B1, “Methods for controlling weeds including kudzu” (priority 2009, dated 2012).

In assay [1] the test system is kudzu. Nature of the assay: Glyphosate and trifloxysulfuron at reduced rates on kudzu (Example 2). Type of assay: in vivo, Pueraria montana (Lour.) Merr. variety lobata (Willd.). As for the experimental part:
(§1) Greenhouse trials: Kudzu was established from seed in flats containing a 2:3 (w:w) mixture of soil (Bosket silt clay loam, fine-silty, mixed thermic Aeric Ochraqualf) and potting media. Seedlings were transferred to 10 cm diameter pots containing the same soil mixture when they developed two true leaves. Pots were placed in the greenhouse, set at 30°±2° C., and equipped with supplemental lighting to provide a 14-h photoperiod. Pots were irrigated as needed and fertilized every three weeks with slow release Osmocote® fertilizer at 1.5 g/pot. […] Plants were selected for size uniformity from a population of approximately three times that necessary to establish a test.
(§2) Herbicides were applied with a pneumatic track sprayer with a TeeJet 8002 flat-fan nozzle delivering 187 L/ha water at 179 kPa. The rates utilized in this study were based on the allowable rates according to the label of the herbicide containers. Kudzu was evaluated for herbicide injury expressed as the percentage of above-ground green biomass remaining at 2 weeks after treatment (WAT) compared to untreated plants (control) on a dry weight basis. Treatments were arranged in a randomized complete block design with four replications and the experiment was repeated. Data were analyzed using the Proc Mixed procedure in SAS and means were separated using a Fisher's Protected least significant difference (LSD) at P=0.05.
The labeled recommended rate of glyphosate for kudzu control was 80 to 106 ounces per acre which was well above the rates tested herein. In Table 2 the rates were 8, 16 and 22 oz formulated glyphosate (WeatherMax™) per acre with trifloxysulfuron at 4.25 grams per acre. The ability to achieve control of kudzu at reduced rates of herbicide was a further indication that a unique effect was observed and allowed control using less pesticide.

Assay [2] relates to kudzu. Nature of the assay: Field trial (Holcomb): kudzu regrowth, green biomass dry weight per plot. As to conditions: 6 WAT, applied mid September at maximum labeled rates, untreated control .81, Lsd .41. Type of assay: in vivo, Pueraria montana (Lour.) Merr. variety lobata (Willd.). The text has this:
Field trials: Uniform areas of land infested with kudzu were identified in Holcomb and Yazoo City, Miss. Plots were one by two meters separated by a narrow strip to prevent cross-contamination of herbicides in Holcomb. Plots were three by three meters in Yazoo City. Herbicides were applied with an hand held boom sprayer equipped with a Teejet 8002 EVS flat fan nozzles, adjusted to 207 kPa, and applied at 1.3 m/s in a single pass to deliver 61.2 L/ha to the treatment areas. Commercial formulations of herbicides were applied at their maximum labeled rates. Herbicides were applied to both sites in mid September. In Holcomb, vegetation within a 0.3 m^2 area of each test plot was harvested at 6 weeks after treatment. Green plant matter was collected and dried as an estimate of above-ground healthy biomass. Biomass of treated plots was compared to untreated plots to determine percent control. In Yazoo City, the percentage reduction in leaf cover was determined by counting the number of leaves intersected by a grid containing 100 intersections (at 10 centimeter intervals) per one meter square.
Translocation of herbicides to roots is vital to achieving control of established perennial species like kudzu having deep root systems and a high capacity for regrowth. Other weeds such as redvine, silverleaf nightshade, and yellow and purple nutsedge with deep perenniating underground structures may also be more easily controlled. Without being bound by theory, the field application occurred in September when carbon allocation in kudzu shifts to root reserve replenishment which could facilitate herbicide translocation and may account for the greater activity of the combination of trifloxysulfuron and glyphosate on suppressing regrowth.

The next assay has as its system mature kudzu vines. As to the kind of experiment: Field: post-emergence application to mature kudzu stands (FIG. 4). It counts as in vivo, Pueraria montana (Lour.) Merr. variety lobata (Willd.). As to conditions: 3 WAT, single post-emergence application, rates per Table 4. The text has this:
The labeled recommended rate of glyphosate, for kudzu control was 80 to 106 ounces per acre which was well above the rates tested herein. ALS inhibitors were used at label rates. Post-emergence applications of the treatments listed in Table 4 were made to mature kudzu stands growing over a Bermuda grass turf. […] When ALS inhibitors were applied alone, less than 10% control was observed 3 WAT, whereas glyphosate alone provided less than 26% control.

Assay [3] deals with kudzu. Nature of the assay: Greenhouse trial: kudzu control by reduction of above-ground green biomass. Type of assay: in vivo, Pueraria montana (Lour.) Merr. variety lobata (Willd.). The settings on record: 2 WAT, vs untreated plants, dry weight basis, rate (units/A) differs per treatment as in Table 1. As for the experimental part:
as §1, §2
In greenhouse studies, shoot biomass was determined at 2 WAT. […] For those skilled in the art of weed control, enhanced control resulting from glyphosate and an ALS inhibitor would not be expected. […] Those with high initial activity against kudzu may provide suitable kudzu control when mixed with glyphosate.

Assay [4] concerns kudzu. The settings on record: thirteen applications over a five year period; cited from earlier work.

For `O=C(O)CNCP(=O)(O)O` [glyphosate], the “Kudzu Control (%)” value with kudzu [1] (glyphosate 0.35 lb./A alone) worked out at 33%; in the assay on kudzu [1] (glyphosate 0.7 lb./A alone), 95%; with kudzu [1] (glyphosate 1 lb./A alone), 97%. Besides, in the assay with kudzu [2], the “Kudzu Regrowth Gram dry wgt per plot” value is recorded as “.52 Gram dry wgt per plot”. The “control of mature kudzu” value with mature kudzu vines is “less than 26%”.

As to `CSc1nnc(C(C)(C)C)c(=O)n1N` [metribuzin], the “Kudzu Regrowth Gram dry wgt per plot” value in the assay on kudzu [2] was “.51 Gram dry wgt per plot”.

Take `CCNc1nc(Cl)nc(NC(C)C)n1` [atrazine]: in the assay on kudzu [2], the “Kudzu Regrowth Gram dry wgt per plot” value is on record as “.59 Gram dry wgt per plot”.

As to `CCOc1nc(F)cc2nc(S(=O)(=O)Nc3c(Cl)cccc3C(=O)O)nn12` [chloransulam], in the assay with kudzu [3], the “Control (%), kudzu control based on percent reduction of above-ground green biomass” value worked out at 11%.

As for `O=C(O)COc1cc(Cl)c(Cl)cc1Cl` [2,4,5-trichlorophenoxyacetic acid], the “killing of all kudzu crowns” value in the assay with kudzu [4] is listed as “not successful in killing all crowns”.

On to `COc1cc(Cl)nc(NC(=O)NS(=O)(=O)c2ccccc2C(=O)O)n1` [chlorimuron], for which, in the assay on kudzu [3], the “Control (%), kudzu control based on percent reduction of above-ground green biomass” value turned out to be 0%.

Take `COc1cc(OC)nc(NC(=O)NS(=O)(=O)c2ncccc2OCC(F)(F)F)n1` [trifloxysulfuron]: the “Control (%), kudzu control based on percent reduction of above-ground green biomass” value in the assay with kudzu [3] is 93%. Further, the “Kudzu Control (%)” value in the assay with kudzu [1] (trifloxysulfuron 4.25 g/A alone) is recorded as 72%.

As for `COc1nc(C)nc(NC(=O)NS(=O)(=O)c2ccccc2C(=O)O)n1` [metsulfuron], in the assay on kudzu [3], the “Control (%), kudzu control based on percent reduction of above-ground green biomass” value stood at 87%.
